According to patent US8327467B2, “Anthranilic acid derivative or salt thereof” (Toyama Chemical Co., Ltd., priority 2005, dated 2012):
Where a name gives a salt, the structure may show the parent alone.

Key:
MMP-13 = MMP-13 production inhibition test; assay type: cell-based; conditions: 30 μmol/L; human cartilage derived cell line SW1353, IL-1β 10 ng/mL, 16 hours after stimulation, MMP-13 in culture supernatant by ELISA; read-out: Inhibition rate (%) at 30 μmol/L
Description: MMP-13 Production Inhibition Test
6.8×10^3 human cartilage derived cell line SW1353 cells were suspended in 100 μL of Dulbecco modified Eagle's medium supplemented with 10% fetal calf serum, plated on 96-well plates and cultured for 3 days. After the culture medium was changed to Dulbecco modified Eagle's medium containing 0.2% lactalbumin hydrolysate and the cells were cultured for 6 hours, test compounds were added and then IL-1β was added to obtain the final concentration of 10 ng/mL 1 hour later. 16 hours after the stimulation, supernatant was collected and the amount of MMP-13 in the culture supernatant was determined with an ELISA kit (Amersham). The inhibition rate was calculated from the amount of MMP-13 in the presence of a test compound assuming that the amount of MMP-13 was 100% in the absence of the test compound.

[1] = system: type II collagen-induced arthritis; assay: Type II collagen-induced arthritis in mice; assay type: in vivo; conditions: male DBA/1 J mice, 10 mg/kg orally once a day from the 21st day to the 35th day
Description: Type II Collagen-Induced Arthritis in Mice
Eight-week old male DBA/1 J mice were used (Charles River Laboratories Japan Inc.). 4 mg/mL bovine type II collagen (Collagen Gijutsu Kenshukai) dissolved in 0.01 mol/L of acetic acid aqueous solution and an equal amount of Freund's complete adjuvant (Chondorex) containing 1 mg/mL of killed tuberculosis bacillus were added to prepare an emulsion, and 0.1 mL thereof was intradermally injected at the base of tail. Similar treatment was conducted on the 21st day to cause arthritis. The test compound was suspended in 0.5% methylcellulose aqueous solution, and 10 mg/kg was orally administered once a day from the 21st day to the 35th day. In the control group,0.5% methylcellulose aqueous solution was administered in the same manner. The severity of arthritis was estimated by scoring at zero point for an animal without change; one point for an animal with swelling at the one or two finger joint or light swelling only at the carpal or tarsal joint; two points for an animal with severe swelling at the carpal or tarsal joint or with swelling at three or more finger joints; three points for an animal with severe swelling along the whole foreleg or hindleg and thus counting 12 points at the maximum for the four limbs as arthritis score. […] The inhibitory rate was determined by the following expression. […]

| SMILES | inhibition at 30 µM (MMP-13) | inhibitory action on arthritis (arthritis score) [1] | inhibitory action on bone destruction (bone destruction score, X-ray on the 36th day) [1] |
| --- | --- | --- | --- |
| O=C(O)c1ccc(CCc2ccccc2)cc1Nc1ccc(F)cc1 [Example 38, 2-(4-Fluoroanilino)-4-phenethylbenzoic acid] | 97% | exhibited inhibitory action | exhibited inhibitory action |
| Cc1ccccc1Nc1cc(-c2cccc(O)c2)ccc1C(=O)O [Example 280, 4-(3-Hydroxyphenyl)-2-(2-methylanilino)benzoic acid] | 90% |  |  |
| O=C(O)c1ccc(N2CCc3ccccc32)cc1Nc1cccc(O)c1 [Example 286, 2-((3-hydroxyphenyl)amino)-4-(indolin-1-yl)benzoic acid] | 96% |  |  |
| COc1cccc(CCc2ccc(C(=O)O)c(Nc3ccccc3C)c2)c1 [Example 290, 4-(2-(3-Methoxyphenyl)ethyl)-2-(2-methylanilino)benzoic acid] | 98% |  |  |
| O=C(O)c1ccc(CCc2ccc3c(c2)OCCO3)cc1Nc1cccc(O)c1 [Example 293, 4-(2-(2,3-dihydro[1,4]benzodioxin-6-yl)ethyl)-2-((3-hydroxyphenyl)amino)benzoic acid] | 87% |  |  |
| O=C(O)c1ccc(CCc2ccccc2)cc1Nc1cc(-c2ccccc2)n[nH]1 [Example 329, 4-Phenethyl-2-((3-phenyl-1H-pyrazol-5-yl)amino)benzoic acid] | 96% |  |  |
| O=C(O)c1ccc(CCc2ccccc2)cc1Nc1ccc2[nH]ccc2c1 [Example 331, 2-((1H-Indol-5-yl)amino)-4-phenethylbenzoic acid] | 97% |  |  |
| O=C(O)c1ccc(-c2ccccc2)cc1Nc1cccc2cccnc12 [Example 340, 4-Phenyl-2-((quinolin-8-yl)amino)benzoic acid] | 97% |  |  |
| O=C(O)c1ccc(-c2ccccc2)cc1Nc1ccccc1Cl [Example 343, 2-(2-Chloroanilino)-4-phenylbenzoic acid] | 98% |  |  |
| O=C(O)c1ccc(-c2ccccc2)cc1NCC=Cc1ccccc1 [Example 350, 2-(Cinnamylamino)-4-phenylbenzoic acid] | 91% |  |  |
| O=C(O)c1ccc(CCc2ccccc2)cc1Nc1cccc2cnccc12 [Example 360, 2-((Isoquinolin-5-yl)amino)-4-phenethylbenzoic acid trifluoroacetate] | 97% |  |  |
| O=C(O)c1ccc(CCc2ccccc2)cc1Nc1cccc(-n2cccn2)c1 [Example 362, 4-Phenethyl-2-(3-(1H-pyrazol-1-yl)phenylamino)benzoic acid] | 97% |  |  |
| O=C(O)c1ccc(CCc2ccccc2)cc1Nc1ccc(-n2cccn2)cc1 [Example 363, 4-Phenethyl-2-(4-(1H-pyrazol-1-yl)phenylamino)benzoic acid] | 96% |  |  |
| CN(C)c1ccccc1Nc1cc(-c2ccccc2)ccc1C(=O)O [Example 372, 2-((2-(dimethylamino)phenyl)amino)-4-phenylbenzoic acid] | 97% |  |  |
